Assay [1] addresses Hepatocyte growth factor receptor (Homo sapiens) (UniProt P08581). The assay is described as follows: Inhibition of Met (unknown origin) at 0.5 uM relative to control.
The target in assay [2] is Tyrosine-protein kinase receptor UFO (Homo sapiens) (UniProt P30530). In words: Inhibition of Axl (unknown origin) at 0.5 uM relative to control.
For assay [3], the target named is Hepatocyte growth factor receptor (Homo sapiens) (UniProt P08581). The assay is described as follows: Inhibition of Met (unknown origin) at 75 uM relative to control.
Assay [4] concerns the target Fibroblast growth factor receptor 3 (Homo sapiens) (UniProt P22607). The assay is described as follows: Inhibition of FGFR3 (unknown origin) at 1 uM relative to control.
Assay [5] has as its target Tyrosine-protein kinase ABL1 (Homo sapiens) (UniProt P00519). The assay is described as follows: Inhibition of non-phosphorylated form of Abl1 (unknown origin) at 1 uM relative to control.
For assay [6], the target named is T1, Tyrosine-protein kinase Mer (Homo sapiens) (UniProt Q12866).
T1 sequence (whole entry): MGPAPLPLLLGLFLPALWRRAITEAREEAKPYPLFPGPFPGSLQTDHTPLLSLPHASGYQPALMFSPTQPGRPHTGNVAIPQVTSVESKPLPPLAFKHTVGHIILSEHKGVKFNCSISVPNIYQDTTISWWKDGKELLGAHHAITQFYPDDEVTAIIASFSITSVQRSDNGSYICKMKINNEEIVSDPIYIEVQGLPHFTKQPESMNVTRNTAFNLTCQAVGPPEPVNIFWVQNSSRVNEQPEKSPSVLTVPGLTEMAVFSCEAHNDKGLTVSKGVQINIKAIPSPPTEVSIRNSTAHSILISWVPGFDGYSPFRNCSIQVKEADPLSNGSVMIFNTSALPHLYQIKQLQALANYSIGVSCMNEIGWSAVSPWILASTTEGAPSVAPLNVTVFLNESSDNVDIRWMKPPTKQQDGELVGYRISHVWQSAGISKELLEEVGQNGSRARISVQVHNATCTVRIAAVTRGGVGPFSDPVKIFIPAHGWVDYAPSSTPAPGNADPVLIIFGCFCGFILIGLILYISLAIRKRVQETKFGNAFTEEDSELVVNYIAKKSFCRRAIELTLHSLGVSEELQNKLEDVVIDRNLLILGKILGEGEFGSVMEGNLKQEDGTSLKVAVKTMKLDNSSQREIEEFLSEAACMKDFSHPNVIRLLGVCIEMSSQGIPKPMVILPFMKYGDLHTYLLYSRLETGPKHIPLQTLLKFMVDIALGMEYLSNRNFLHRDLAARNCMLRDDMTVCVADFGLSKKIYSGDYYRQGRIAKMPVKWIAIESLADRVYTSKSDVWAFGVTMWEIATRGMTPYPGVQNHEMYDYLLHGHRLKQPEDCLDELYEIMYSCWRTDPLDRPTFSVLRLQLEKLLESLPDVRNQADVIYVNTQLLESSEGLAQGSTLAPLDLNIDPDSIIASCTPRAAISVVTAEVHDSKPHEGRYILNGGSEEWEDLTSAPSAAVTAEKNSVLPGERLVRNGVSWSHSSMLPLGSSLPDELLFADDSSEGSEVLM
In words: Inhibition of Mer (unknown origin) at 1 uM relative to control.

The target in assay [7] is Tyrosine-protein kinase ABL1 (Homo sapiens) (UniProt P00519). The assay is described as follows: Inhibition of non-phosphorylated form of Abl1 (unknown origin) at 75 uM relative to control.
The target is the same in assay [8]. In words: Inhibition of phosphorylated form of Abl1 (unknown origin) at 0.5 uM relative to control.
The target in assay [9] is Fibroblast growth factor receptor 3 (Homo sapiens) (UniProt P22607). The assay is described as follows: Inhibition of FGFR3 (unknown origin) at 75 uM relative to control.
Assay [10] addresses Tyrosine-protein kinase receptor UFO (Homo sapiens) (UniProt P30530). The assay is described as follows: Inhibition of Axl (unknown origin) at 75 uM relative to control.
The target in assay [11] is Tyrosine-protein kinase ABL1 (Homo sapiens) (UniProt P00519). In words: Inhibition of phosphorylated form of Abl1 (unknown origin) at 1 uM relative to control.
For assay [12] the target is unchanged. The assay is described as follows: Inhibition of phosphorylated form of Abl1 (unknown origin) at 75 uM relative to control.
Assay [13] has as its target T2, Tyrosine-protein kinase receptor TYRO3 (Homo sapiens) (UniProt Q06418).
T2 sequence (whole entry): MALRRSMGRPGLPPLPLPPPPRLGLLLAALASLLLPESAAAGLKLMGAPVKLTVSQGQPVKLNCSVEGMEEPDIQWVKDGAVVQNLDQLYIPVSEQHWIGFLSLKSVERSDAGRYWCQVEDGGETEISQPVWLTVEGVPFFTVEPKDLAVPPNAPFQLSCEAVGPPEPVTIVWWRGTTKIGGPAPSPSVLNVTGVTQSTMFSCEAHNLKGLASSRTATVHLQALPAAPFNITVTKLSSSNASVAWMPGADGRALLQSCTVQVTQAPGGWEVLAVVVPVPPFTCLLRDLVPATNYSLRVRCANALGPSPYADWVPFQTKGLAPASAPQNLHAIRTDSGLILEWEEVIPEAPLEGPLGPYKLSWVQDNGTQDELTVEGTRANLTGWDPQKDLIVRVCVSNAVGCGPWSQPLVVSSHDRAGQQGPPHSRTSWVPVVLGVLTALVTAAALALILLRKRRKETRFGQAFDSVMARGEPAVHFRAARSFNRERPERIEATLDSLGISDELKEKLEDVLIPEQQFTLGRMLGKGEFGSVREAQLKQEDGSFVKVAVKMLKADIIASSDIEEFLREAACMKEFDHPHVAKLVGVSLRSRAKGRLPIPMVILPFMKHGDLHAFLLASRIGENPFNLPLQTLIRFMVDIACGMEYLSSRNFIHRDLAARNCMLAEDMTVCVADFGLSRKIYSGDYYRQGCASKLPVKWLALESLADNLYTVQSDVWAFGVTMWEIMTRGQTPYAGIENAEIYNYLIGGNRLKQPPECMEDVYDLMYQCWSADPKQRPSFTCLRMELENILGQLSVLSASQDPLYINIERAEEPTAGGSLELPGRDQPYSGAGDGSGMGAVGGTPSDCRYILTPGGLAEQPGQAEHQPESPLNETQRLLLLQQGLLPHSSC
The assay is described as follows: Inhibition of recombinant human Tyro3 kinase domain using poly (Glu, Ala, Tyr) as substrate at 75 uM after 1.5 hrs by ELISA relative to control. In general terms: An ELISA detects its analyte on a solid surface through an enzyme-linked reagent.

In assay [14] the target is Tyrosine-protein kinase receptor UFO (Homo sapiens) (UniProt P30530). The assay is described as follows: Inhibition of Axl (unknown origin) at 1 uM relative to control.
The target in assay [15] is T1, Tyrosine-protein kinase Mer (Homo sapiens). In words: Inhibition of Mer (unknown origin) at 75 uM relative to control.
Assay [16] has as its target T2, Tyrosine-protein kinase receptor TYRO3 (Homo sapiens). In words: Inhibition of recombinant human Tyro3 kinase domain using poly (Glu, Ala, Tyr) as substrate at 1 uM after 1.5 hrs by ELISA relative to control.
Assay [17] deals with Tyrosine-protein kinase ABL1 (Homo sapiens) (UniProt P00519). The assay is described as follows: Inhibition of non-phosphorylated form of Abl1 (unknown origin) at 0.5 uM relative to control.
For assay [18], the target named is Fibroblast growth factor receptor 3 (Homo sapiens) (UniProt P22607). In words: Inhibition of FGFR3 (unknown origin) at 0.5 uM relative to control.
Assay [19] has as its target T2, Tyrosine-protein kinase receptor TYRO3 (Homo sapiens). The assay is described as follows: Inhibition of recombinant human Tyro3 kinase domain using poly (Glu, Ala, Tyr) as substrate at 0.5 uM after 1.5 hrs by ELISA relative to control.
Assay [20] concerns the target Hepatocyte growth factor receptor (Homo sapiens) (UniProt P08581). In words: Inhibition of Met (unknown origin) at 1 uM relative to control.
Assay [21] has as its target T1, Tyrosine-protein kinase Mer (Homo sapiens). In words: Inhibition of Mer (unknown origin) at 0.5 uM relative to control.

Chain of Tyrosine-protein kinase ABL1 (Homo sapiens) (P00519 whole entry): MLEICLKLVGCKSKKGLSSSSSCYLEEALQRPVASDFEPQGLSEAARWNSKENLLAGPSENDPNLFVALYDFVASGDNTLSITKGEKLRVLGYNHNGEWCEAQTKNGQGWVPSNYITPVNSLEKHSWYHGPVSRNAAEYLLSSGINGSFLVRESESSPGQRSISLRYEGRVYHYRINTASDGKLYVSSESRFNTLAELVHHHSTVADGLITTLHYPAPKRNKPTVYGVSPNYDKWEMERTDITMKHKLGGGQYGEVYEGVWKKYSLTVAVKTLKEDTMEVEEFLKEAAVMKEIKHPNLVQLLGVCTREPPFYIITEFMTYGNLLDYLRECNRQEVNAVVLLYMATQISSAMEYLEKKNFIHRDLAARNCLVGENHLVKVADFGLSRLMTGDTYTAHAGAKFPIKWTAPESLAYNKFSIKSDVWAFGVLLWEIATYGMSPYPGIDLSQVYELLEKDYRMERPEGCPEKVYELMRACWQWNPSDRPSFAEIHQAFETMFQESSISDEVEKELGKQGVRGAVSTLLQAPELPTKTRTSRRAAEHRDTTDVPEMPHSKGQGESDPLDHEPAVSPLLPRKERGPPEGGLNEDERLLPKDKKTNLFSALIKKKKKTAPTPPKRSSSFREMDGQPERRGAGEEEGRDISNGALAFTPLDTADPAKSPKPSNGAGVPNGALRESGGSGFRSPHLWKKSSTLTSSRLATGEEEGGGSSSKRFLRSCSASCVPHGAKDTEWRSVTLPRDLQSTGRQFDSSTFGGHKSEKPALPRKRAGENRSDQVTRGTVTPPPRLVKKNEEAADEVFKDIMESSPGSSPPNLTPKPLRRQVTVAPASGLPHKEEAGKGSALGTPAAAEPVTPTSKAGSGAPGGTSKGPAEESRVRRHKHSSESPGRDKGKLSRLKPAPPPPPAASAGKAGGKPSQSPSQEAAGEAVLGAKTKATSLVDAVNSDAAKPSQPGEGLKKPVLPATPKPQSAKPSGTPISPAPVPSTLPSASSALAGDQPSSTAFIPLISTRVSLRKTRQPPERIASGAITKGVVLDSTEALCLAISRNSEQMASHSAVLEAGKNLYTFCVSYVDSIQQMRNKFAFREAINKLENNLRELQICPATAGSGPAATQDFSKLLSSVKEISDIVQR
Chain of Fibroblast growth factor receptor 3 (Homo sapiens) (P22607 23-806 limits assumed): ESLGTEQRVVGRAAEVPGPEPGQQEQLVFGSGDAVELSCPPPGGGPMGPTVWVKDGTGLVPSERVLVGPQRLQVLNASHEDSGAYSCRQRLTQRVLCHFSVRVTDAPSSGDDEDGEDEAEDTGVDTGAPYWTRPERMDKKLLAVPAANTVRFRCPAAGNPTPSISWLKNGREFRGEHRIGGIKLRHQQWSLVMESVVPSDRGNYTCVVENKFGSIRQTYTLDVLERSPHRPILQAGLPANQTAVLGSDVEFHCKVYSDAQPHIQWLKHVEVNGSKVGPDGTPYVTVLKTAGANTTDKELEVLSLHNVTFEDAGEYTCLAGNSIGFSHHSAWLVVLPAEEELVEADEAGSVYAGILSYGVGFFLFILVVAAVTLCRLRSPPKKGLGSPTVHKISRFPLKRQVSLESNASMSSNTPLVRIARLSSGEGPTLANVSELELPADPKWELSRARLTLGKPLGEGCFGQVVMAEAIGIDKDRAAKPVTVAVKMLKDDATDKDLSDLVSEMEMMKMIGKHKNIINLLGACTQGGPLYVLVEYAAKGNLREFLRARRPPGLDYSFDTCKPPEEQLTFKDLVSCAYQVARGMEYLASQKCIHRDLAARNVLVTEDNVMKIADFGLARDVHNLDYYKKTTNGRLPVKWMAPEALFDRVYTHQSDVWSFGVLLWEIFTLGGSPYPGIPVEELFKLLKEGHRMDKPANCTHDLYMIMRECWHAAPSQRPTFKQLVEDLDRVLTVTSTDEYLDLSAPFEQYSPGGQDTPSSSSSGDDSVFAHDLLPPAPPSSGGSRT
Chain of Hepatocyte growth factor receptor (Homo sapiens) (P08581 whole entry): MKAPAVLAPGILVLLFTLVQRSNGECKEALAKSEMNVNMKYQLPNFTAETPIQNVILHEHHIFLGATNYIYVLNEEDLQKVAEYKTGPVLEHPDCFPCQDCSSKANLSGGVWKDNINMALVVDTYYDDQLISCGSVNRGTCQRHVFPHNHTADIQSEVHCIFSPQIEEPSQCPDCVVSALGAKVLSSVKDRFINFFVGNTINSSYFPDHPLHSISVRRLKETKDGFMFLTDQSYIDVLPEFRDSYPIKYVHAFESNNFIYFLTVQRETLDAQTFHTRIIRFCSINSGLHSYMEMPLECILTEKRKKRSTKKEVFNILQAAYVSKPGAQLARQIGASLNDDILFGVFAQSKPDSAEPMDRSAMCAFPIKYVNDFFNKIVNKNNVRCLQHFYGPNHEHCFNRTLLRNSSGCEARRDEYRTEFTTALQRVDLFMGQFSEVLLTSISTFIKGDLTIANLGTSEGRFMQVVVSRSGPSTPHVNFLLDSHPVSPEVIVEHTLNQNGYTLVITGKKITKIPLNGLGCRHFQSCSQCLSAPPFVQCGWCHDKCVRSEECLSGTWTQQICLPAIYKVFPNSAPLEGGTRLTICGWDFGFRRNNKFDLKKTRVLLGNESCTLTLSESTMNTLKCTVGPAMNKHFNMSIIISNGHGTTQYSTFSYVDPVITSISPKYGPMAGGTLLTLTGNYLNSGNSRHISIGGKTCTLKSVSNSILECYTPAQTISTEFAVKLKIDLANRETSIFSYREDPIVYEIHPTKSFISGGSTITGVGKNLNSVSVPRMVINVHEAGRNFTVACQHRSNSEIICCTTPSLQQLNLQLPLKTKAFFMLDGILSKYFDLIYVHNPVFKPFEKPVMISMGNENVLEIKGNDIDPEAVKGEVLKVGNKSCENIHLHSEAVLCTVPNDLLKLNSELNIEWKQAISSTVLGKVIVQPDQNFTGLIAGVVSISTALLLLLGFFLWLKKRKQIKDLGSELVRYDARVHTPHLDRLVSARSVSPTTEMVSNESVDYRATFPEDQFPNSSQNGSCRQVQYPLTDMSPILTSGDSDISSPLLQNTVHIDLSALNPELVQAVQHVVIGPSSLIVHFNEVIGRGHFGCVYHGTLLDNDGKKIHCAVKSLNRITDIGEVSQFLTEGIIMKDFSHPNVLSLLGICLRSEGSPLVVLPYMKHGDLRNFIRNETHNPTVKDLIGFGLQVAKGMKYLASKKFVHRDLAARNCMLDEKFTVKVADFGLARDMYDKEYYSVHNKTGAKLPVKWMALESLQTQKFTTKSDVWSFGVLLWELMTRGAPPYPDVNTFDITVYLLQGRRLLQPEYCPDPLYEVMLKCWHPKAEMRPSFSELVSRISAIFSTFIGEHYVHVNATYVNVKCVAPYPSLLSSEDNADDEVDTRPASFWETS
Chain of Tyrosine-protein kinase receptor UFO (Homo sapiens) (P30530 whole entry): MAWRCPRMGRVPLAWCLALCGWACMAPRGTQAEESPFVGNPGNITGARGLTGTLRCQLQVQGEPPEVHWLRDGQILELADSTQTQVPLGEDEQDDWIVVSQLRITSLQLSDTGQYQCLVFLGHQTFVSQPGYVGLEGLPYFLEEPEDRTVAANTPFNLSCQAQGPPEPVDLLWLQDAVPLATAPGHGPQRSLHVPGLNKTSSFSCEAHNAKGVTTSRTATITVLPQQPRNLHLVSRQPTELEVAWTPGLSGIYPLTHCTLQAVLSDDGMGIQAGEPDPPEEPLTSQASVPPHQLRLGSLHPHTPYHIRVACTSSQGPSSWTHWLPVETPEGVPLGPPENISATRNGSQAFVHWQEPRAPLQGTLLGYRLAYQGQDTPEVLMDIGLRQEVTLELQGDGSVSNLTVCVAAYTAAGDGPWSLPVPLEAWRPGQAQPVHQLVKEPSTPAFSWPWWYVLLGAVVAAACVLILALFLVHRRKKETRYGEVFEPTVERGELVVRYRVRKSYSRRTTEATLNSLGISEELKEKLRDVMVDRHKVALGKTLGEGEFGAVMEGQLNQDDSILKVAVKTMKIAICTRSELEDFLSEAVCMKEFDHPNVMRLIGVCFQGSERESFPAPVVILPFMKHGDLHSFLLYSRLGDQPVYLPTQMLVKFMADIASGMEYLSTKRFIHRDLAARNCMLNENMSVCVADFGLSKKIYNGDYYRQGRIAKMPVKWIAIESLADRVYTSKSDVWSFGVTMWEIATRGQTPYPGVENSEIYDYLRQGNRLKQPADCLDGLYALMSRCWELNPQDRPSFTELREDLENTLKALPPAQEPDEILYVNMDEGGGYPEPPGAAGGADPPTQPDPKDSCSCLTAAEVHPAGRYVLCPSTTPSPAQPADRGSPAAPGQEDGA

The inhibition is the relative decrease from the control value, in per cent. Consider `Nc1cc(Oc2ccc(NC(=O)c3cccn(-c4ccc(F)cc4)c3=O)cc2F)ncn1`, for which the inhibition in assay [1] was 98%; in assay [2] it was 97%; in assay [3], 98%; in assay [4] it was 0%; in assay [5], 41%; in [6], 93%. Moreover, the inhibition in [7] amounted to 94%; in assay [8], 0%; in [9] it was 16%; in assay [10], 100%; in [11], 0%; in assay [12] it was 39%. In addition, the inhibition in [13] was determined as 100%; in [14], 100%; in assay [15], 83%; in [16] it was 94%; in assay [17] it was 23%; in [18] it was 0%. The inhibition in [19] amounted to 77%; in assay [20], 98%; in assay [21] it was 89%.

Consider `Nc1cc(Oc2ccc(NC(=O)c3cccn(-c4ccc(F)cc4F)c3=O)cc2F)ncn1`, for which the inhibition in [1] was found to be 91%; in assay [2], 74%; in [3], 99%; in [4], 0%; in assay [5], 37%; in [6], 71%. Moreover, the inhibition in [7] was 85%; in assay [8], 8%; in assay [9], 9%; in assay [10] it was 100%; in assay [11] it was 4%; in assay [12], 21%. Also, the inhibition in assay [13] stood at 100%; in assay [14] it was 93%; in assay [15], 87%; in [16], 63%; in [17], 25%; in assay [18], 0%. The inhibition in [19] stood at 27%; in assay [20], 97%; in assay [21] it was 50%.

With `Nc1cc(Oc2ccc(NC(=O)c3cccn(-c4ccc(F)cc4)c3=O)cc2)ncn1`, the inhibition in assay [1] stood at 95%; in [2] it was 85%; in [3] it was 97%; in assay [4] it was 0%; in assay [5] it was 31%; in assay [6] it was 82%. Also, the inhibition in assay [7] was 94%; in [8] it was 0%; in assay [9], 3%; in [10] it was 100%; in assay [11], 0%; in assay [12], 26%. For the same molecule, the inhibition in assay [13] came to 81%; in [14] it was 95%; in [15], 100%; in assay [16] it was 75%; in assay [17], 14%; in [18], 0%. Also, the figures for the inhibition in [19], in assay [20] and in assay [21] were 41%, 98% and 73%, respectively.

In the case of `Cc1cc(F)ccc1-n1cccc(C(=O)Nc2ccc(Oc3cc(N)ncn3)c(F)c2)c1=O`, the inhibition stood at 99% in assay [1]; 93% in assay [2]; 99% in [3]; 0% in assay [4]; 27% in assay [5]; 65% in assay [6]. Further, the inhibition in assay [7] is 98%; in [8], 0%; in assay [9] it was 6%; in assay [10], 100%; in assay [11], 0%; in [12], 47%. Moreover, the inhibition in assay [13] was 100%; in assay [14], 98%; in [15] it was 99%; in assay [16], 65%; in [17], 10%; in assay [18] it was 0%. For the same molecule, the results for the inhibition in assay [19], in assay [20] and in assay [21] were 48%, 100% and 53%, respectively.

The record behind these values is ChEMBL document CHEMBL3091325, “New aminopyrimidine derivatives as inhibitors of the TAM family” (Eur J Med Chem, 2013).
